In patent US9176114B2, “Cell culture model for acquired chemoresistance of chronic myelogenous leukemia and related methods for identifying agents to overcome resistance” (CITY OF HOPE, priority 2007, dated 2015):
Counter-ions that a name gives are not always drawn.

Key:
KCL-22 cells [1] = test: Resistance assay: relapse of KCL-22 cells in prolonged liquid culture (CML acquired resistance model); type: cell-based, human; settings: for relapse of KCL-22 cells on imatinib (STI-571) in combination with the inhibitor: prolonged culture
Description: Cells were maintained in these cultures without changing medium.
Cells were maintained in these cultures without changing medium. Aliquots of cells were taken out at specified time points and cell numbers counted using a hematocytometer. Cell viability was accessed by trypan blue exclusion where necessary.

K562 cells = test: Growth factor-induced transient resistance (serum-free medium, basic supplements, insulin); type: cell-based, human; settings: 1 μM STI-571, two days pre-incubation in SF medium with basic supplements
Protocol: (A) Growth curves of K562 cells in serum medium, and serum-free medium supplied with basic supplements containing 5 μg/ml insulin and 5 μg/ml transferrin (basic) with or without 75 ng/ml EGF, 25 μg/ml HDL or both (EH). […] Relative survival of imatinib treated cells was calculated by comparison to no drug treatment. Pre-incubation for two days renders resistance. […] Since sirtinol is insoluble in SF medium, HDL 25 μg/ml was added to help dissolve the drug. (D) Effects of basic supplements in serum medium. […] Viable cells were counted one and three days after the treatment. […] (F) Effects of insulin in resistance.
Whether serum-free medium supplied with select growth factors provides a better culture environment for developing CML chemoresistance was determined. Serum-free (SF) medium with insulin, transferring, epidermal growth factor (EGF) and high density lipoprotein (HDL) was used. SF medium with the basic supplements (5 μg/ml insulin and 5 μg/ml transferring) was sufficient to support growth of both K562 cells (FIG. 13A) and KCL-22 cells. […] Sirtinol is able to overcome CML resistance in SF culture.
Transient resistance conferred by insulin and transferrin supplement is of interest as insulin receptor is overexpressed in about 90% primary CML cells. The key insulin downstream target phosphatidylinositol-3 kinase (PI3K) is required for BCR-ABL mediated transformation and inhibition of PI3K-Akt-mTor pathway has been explored to overcome CML chemoresistance. SIRT1 is a key gene for regulating insulin secretion and directly regulates Akt downstream target FOXO proteins through deacetylation. Therefore, the effect of insulin itself for transient resistance to imatinib and the response of sirtinol treatment were examined.

SIRT1 = SIRT1 protein expression by Western blot; type: cell-based, human
Protocol: (§1) SIRT1 expression was analyzed by Western blot using 1:5000 diluted rabbit monoclonal SIRT1 antibody (Epitomics). Controls used were GAPDH or actin as loading controls with rabbit anti-GAPDH (Trevigen) or anti-actin (Sigma) at 1:5000 dilution. GAPDH [>ref|NT—009759.15|Hs12—9916:6497433-6502281 Homo sapiens chromosome 12 genomic contig, reference assembly] primers used are as follows: […]
RNA was extracted with Trizol (Invitrogen), synthesized the first strand DNA with Superscript III kit (Invitrogen), and analyzed gene expression using SYBR GreenER qPCR SuperMix kit (Invitrogen). For Western blots, rabbit monoclonal anti-human SIRT1 (Epitomics), rabbit anti-mouse SIRT1 (Upstate Biotech), mouse monoclonal anti-c-ABL (BD Pharmingen), mouse monoclonal anti-Ku70 (Neomarker), rabbit polyclonal anti-acetylated p53 (Cell Signaling) and rabbit polyclonal anti-acetylated FOXO1 (Santa Cruz Biotech) were used. To analyze Ku70 acetylation, Ku70 was pulled down from total cell lysate with anti-Ku70 and protein A-agarose beads (Upstate Biotech) followed by acetylation detection with rabbit anti-acetyl lysine antibody (Cell Signaling).

SIRT1 promoter = SIRT1 promoter assay (luciferase reporter); type: cell-based, human; settings: KCL-22 and K562 cells
Protocol: FeOfection reagent (GENOVIS) was used to transfect 0.18 μg reporter and 0.02 μg pmaxGFP each well per the manufacturer's instruction. Six hours after transfection, cells were treated with imatinib and harvested after another 30 hs. Luciferase activity was measured using Dual-Luciferase Assay System (Promega), and normalized to GFP reading in each lysate.

CML mice [2] = settings: P210 BCR-ABL BALB/c model; cited from earlier work
KU-812 xenograft = settings: relapse after 48 to 60 days; cited from earlier work
KCL-22 cells [3] = test: Analysis of reactive oxygen species (ROS) and DNA damage (γH2AX); type: cell-based, human; settings: 24 h, in the presence or absence of imatinib
Protocol: ROS was analyzed using redox-sensitive fluorochrome 2′.7′-dichlorofluorescein diacetate (Sigma) as described previously (Koptyra et al. 2006). When coupled with the apoptosis analysis, cells were labeled with annexin V first and then 2′.7′-dichlorofluorescein diacetate.
Cells were pre-selected for four days in HAT medium to remove pre-existing HPRT mutations. The efficiency of HAT selection was confirmed by plating these cells on soft agar with 2.5 μg/ml 6-thioguanine, which produced zero colony. HAT-selected cells were then treated with 0.5 μM CPT for 1 hour, and then cultured for 10 days before used for soft agar clonogenic assay with 6-thioguanine selection. The rest of HAT-selected cells were cultured in medium without selection. The change of γH2AX was analyzed with γH2AX Assay Kit (Upstate Biotech).

HIC1 = HIC1 expression / SIRT1 level after HDAC and DNMT inhibitors; type: cell-based, human; settings: KCL-22 cells, alone or in combination
Description: Total cellular RNA with Trizol (Invitrogen) using a standard protocol. First strand DNA was synthesized and HIC1 expression by quantitative real-time RT-PCR using a kit with SYBR Green label (Invitrogen) as per the manufacture's instruction on a BioRad machine OPTICON. The following are the HIC1 primers (spanning introns), 5′-[…]-3′(exon 1a) and 5′-[…]-3′ (Exon 2). [>ref|NT—010718.15|Hs17—10875:1561637-1565694 Homo sapiens chromosome 17 genomic contig, reference assembly]
as §1

KCL-22M cells = settings: 1 μM inhibitor
Protocol: Cell cycle was analyzed by fixing cells with 70% ethanol at −20° C. overnight. After washing, cells were resuspended in phosphate-buffered saline containing 1 mg/ml RNase A, incubated for 30 min at 37° C., and then stained with propidine iodine (50 μg/ml) for 30 min at room temperature before flow cytometry analysis. Cell proliferation was analyzed using a XTT Cell Proliferation kit (Roche Applied Science), and apoptosis was analyzed with annexin V kit (BD Pharmingen) as per the manufacturer's instruction.

[4] = system: SIRT1 and other sirtuin deacetylases; settings: cited from earlier work
[5] = Physiological indexes of normal BALB/c mice after 10 day treatment; type: in vivo; settings: tenovin-6 alone or in combination with imatinib
CML CD34+ cells = test: Apoptosis and p53 acetylation in primary CML CD34+ cells; type: cell-based, human
Description: FIG. 32 illustrates that SIRT1 inhibition enhances apoptosis of human CML progenitor cells. (A) Inhibition of SIRT1 protein expression in CML and cord blood (CB) CD34+ cells by lentivirus-mediated expression of SIRT1 shRNA. […] (C) SIRT1 inhibition in CML CD34+ cells results in increased P53 acetylation. […] (F) SIRT1 expression in CB and AML CD34+ cells.

AML CD34+ cells = test: Apoptosis of AML CD34+ cells; type: cell-based, human
Solubility = type: physicochemical
CML mice [6] = test: Mouse bone marrow transduction/transplantation model of CML-like disease, drug treatment
[7] = 1 μM TSA with all dosages of STI-571

## Cc1ccc(NC(=O)c2ccc(CN3CCN(C)CC3)cc2)cc1Nc1nccc(-c2cccnc2)n1 [STI-571, Imatinib mesylate]
KCL-22 cells [1]; 1 μM STI-571
  sensitivity of KCL-22 cells to treatment: insensitive
K562 cells
  sensitivity of K562 cells to STI-571 in SF medium: as refractory as KCL-22 cells
SIRT1; KCL-22M cells
  SIRT1 expression: did not change SIRT1 expression
SIRT1; KCL-22 and K562 cells, imatinib 48 hours
  SIRT1 protein levels: decreased in a drug concentration-dependent manner
SIRT1 promoter
  SIRT1 promoter activity: significantly inhibited SIRT1 promoter activity
CML mice [2]
  mice with prolonged survival on STI-571: 80%
KU-812 xenograft
  fraction of mice relapsing on STI-571: one third

## CC(/C=C/C(=O)NO)=C\[C@@H](C)C(=O)c1ccc(N(C)C)cc1 [TSA, trichostatin A]
KCL-22 cells [1]; [7]
  cell killing in combination with STI-571: massive apoptosis and dramatic cell killing
  relapse on TSA plus STI-571: After ten days, cells on all dosages of STI-571 relapsed
KCL-22 cells [1]; TSA at 1 μM alone
  toxicity on KCL-22 cells, inhibitor alone: little toxicity
KCL-22 cells [1]
  relapse of KCL-22 cells on imatinib (STI-571) in combination with the inhibitor: fails to block relapse
KCL-22 cells [3]
  γH2AX expression: elicited robust γH2AX induction
HIC1
  reactivation of HIC1 expression / reduction of SIRT1 level: could not reactivate HIC1 expression or reduce SIRT1 level
KCL-22M cells
  growth of KCL-22M cells: no effect on cell growth
[4]
  sensitivity of SIRT1 to the inhibitor: insensitive

## CN(C)CCCCC(=O)Nc1ccc(NC(=S)NC(=O)c2ccc(C(C)(C)C)cc2)cc1 [tenovin-6]
KCL-22 cells [1]
  lowest dose that blocked relapse on imatinib: 1 µM
  recurrence on nilotinib or dasatinib in combination with SIRT1 inhibitor: effectively blocked the recurrence
  relapse on […] Nilotinib in combination with SIRT1 inhibitor: blocked relapse
  relapse of KCL-22 cells on imatinib (STI-571) in combination with the inhibitor: blocks relapse
KCL-22 cells [1]; 1 μM tenovin-6
  relapse on 1 μM Dasatinib in combination with tenovin-6: delayed the relapse
KCL-22 cells [1]; 5 μM tenovin-6
  relapse on 1 μM Dasatinib in combination with tenovin-6: blocked relapse
[5]
  toxicity: No noticeable toxicity
CML CD34+ cells
  P53 acetylation in CML CD34+ cells: enhanced P53 acetylation
  apoptosis of primitive CML CD34+CD38- progenitors incl. quiescent fraction: increased apoptosis
AML CD34+ cells
  apoptosis of AML CD34+ cells: induced apoptosis
Solubility
  water solubility: water soluble
CML mice [6]; 50 mg/kg/day, 10 days from day 10 after transplantation
  CML mouse survival: significantly extended CML mouse survival
CML mice [6]; tenovin-6 with imatinib
  CML mouse survival, combination: longest survivors
